pIC50: −log10 of the molar value.
Molecular target: FGFR3 enzyme (Millipore) (Homo sapiens (Human), UniProt P22607)
Assay: FGFR3 Enzymatic Assay
Assay type: biochemical
Settings: FRET peptide phosphorylation, 140 μM ATP
Outline: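 FGFR3 preincubated 5-10 min with serially diluted inhibitor in 50 mM HEPES pH 7.5, 10 mM MgCl2, 1 mM EGTA, 5 mM DTT, then reacted 1 h at 25 °C. Peptide phosphorylation detected by FRET; IC50 from variable-slope sigmoidal fit.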

Sequence of FGFR3 enzyme (Millipore) (P22607 23-806): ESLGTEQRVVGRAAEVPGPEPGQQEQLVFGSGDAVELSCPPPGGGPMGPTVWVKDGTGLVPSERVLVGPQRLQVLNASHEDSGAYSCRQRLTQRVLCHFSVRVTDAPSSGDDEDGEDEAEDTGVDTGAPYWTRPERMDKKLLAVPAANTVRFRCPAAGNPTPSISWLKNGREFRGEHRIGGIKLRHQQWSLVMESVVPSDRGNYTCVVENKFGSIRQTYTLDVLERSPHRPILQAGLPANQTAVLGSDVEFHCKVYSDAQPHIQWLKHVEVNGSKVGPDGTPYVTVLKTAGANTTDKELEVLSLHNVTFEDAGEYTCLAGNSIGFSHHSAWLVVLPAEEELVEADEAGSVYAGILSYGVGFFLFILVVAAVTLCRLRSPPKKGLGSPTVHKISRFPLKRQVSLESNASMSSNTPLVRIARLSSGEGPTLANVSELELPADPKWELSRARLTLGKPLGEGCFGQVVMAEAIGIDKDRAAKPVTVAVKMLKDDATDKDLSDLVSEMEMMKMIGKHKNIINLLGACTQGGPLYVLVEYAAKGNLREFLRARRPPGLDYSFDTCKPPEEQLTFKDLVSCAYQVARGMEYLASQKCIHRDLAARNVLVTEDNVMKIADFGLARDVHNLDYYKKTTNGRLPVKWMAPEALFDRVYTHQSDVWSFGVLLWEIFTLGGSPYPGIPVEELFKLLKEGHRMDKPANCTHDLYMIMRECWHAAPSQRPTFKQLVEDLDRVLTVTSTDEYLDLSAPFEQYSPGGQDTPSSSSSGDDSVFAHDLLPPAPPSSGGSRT

SMILES	pIC50
CC(C(=O)NCC#N)n1cc(-c2cnn3c(-c4cccc(NC(=O)NCC(F)(F)F)c4)cnc3c2)cn1 (stereo not shown) [Example 66, N-(Cyanomethyl)-2-(4-{3-[3-({[(2,2,2-trifluoroethyl)amino]carbonyl}amino)phenyl]imidazo[1,2-b]pyridazin-7-yl}-1H-pyrazol-1-yl)propanamide]	> 8.00
CC(C(=O)N1CCC(C#N)C1)n1cc(-c2cnn3c(-c4cccc(NC(=O)NCC(F)(F)F)c4)cnc3c2)cn1 (stereo not shown) [Example 67, N-[3-(7-{1-[2-(3-Cyanopyrrolidin-1-yl)-1-methyl-2-oxoethyl]-1H-pyrazol-4-yl}imidazo[1,2-b]pyridazin-3-yl)phenyl]-N′-(2,2,2-trifluoroethyl)urea]	> 8.00
COC1CCN(C(=O)C(C)n2cc(-c3cnn4c(-c5cccc(NC(=O)NCC(F)(F)F)c5)cnc4c3)cn2)C1 (stereo not shown) [Example 68, N-[3-(7-{1-[2-(3-Methoxypyrrolidin-1-yl)-1-methyl-2-oxoethyl]-1H-pyrazol-4-yl}imidazo[1,2-b]pyridazin-3-yl)phenyl]-N′-(2,2,2-trifluoroethyl)urea]	> 8.00
COC1CCN(C(=O)C(C)n2cc(-c3cnn4c(-c5cccc(NC(=O)NCC(F)(F)F)c5)cnc4c3)cn2)CC1 (stereo not shown) [Example 69, N-[3-(7-{1-[2-(4-Methoxypiperidin-1-yl)-1-methyl-2-oxoethyl]-1H-pyrazol-4-yl}imidazo[1,2-b]pyridazin-3-yl)phenyl]-N′-(2,2,2-trifluoroethyl)urea]	> 8.00
CC(C(=O)N1CCC(C#N)CC1)n1cc(-c2cnn3c(-c4cccc(NC(=O)NCC(F)(F)F)c4)cnc3c2)cn1 (stereo not shown) [Example 70, N-[3-(7-{1-[2-(4-Cyanopiperidin-1-yl)-1-methyl-2-oxoethyl]-1H-pyrazol-4-yl}imidazo[1,2-b]pyridazin-3-yl)phenyl]-N′-(2,2,2-trifluoroethyl)urea]	> 8.00
CC(C(=O)NC1CCN(C)CC1)n1cc(-c2cnn3c(-c4cccc(NC(=O)NCC(F)(F)F)c4)cnc3c2)cn1 (stereo not shown) [Example 71, N-(1-Methylpiperidin-4-yl)-2-(4-{3-[3-({[(2,2,2-trifluoroethyl)amino]carbonyl}amino)phenyl]imidazo[1,2-b]pyridazin-7-yl}-1H-pyrazol-1-yl)propanamide]	> 8.00
CC(C(=O)N1CC(C#N)C1)n1cc(-c2cnn3c(-c4cccc(NC(=O)NCC(F)(F)F)c4)cnc3c2)cn1 (stereo not shown) [Example 72, N-[3-(7-{1-[2-(3-Cyanoazetidin-1-yl)-1-methyl-2-oxoethyl]-1H-pyrazol-4-yl}imidazo[1,2-b]pyridazin-3-yl)phenyl]-N′-(2,2,2-trifluoroethyl)urea]	> 8.00
Cn1ccc(S(=O)(=O)N2CC(CC#N)(n3cc(-c4cnn5c(-c6cccc(NC(=O)NCC(F)(F)F)c6)cnc5c4)cn3)C2)n1 [Example 73, N-{3-[7-(1-{3-(Cyanomethyl)-1-[(1-methyl-1H-pyrazol-3-yl)sulfonyl]azetidin-3-yl}-1H-pyrazol-4-yl)imidazo[1,2-b]pyridazin-3-yl]phenyl}-N′-(2,2,2-trifluoroethyl)urea]	> 8.00
Cc1oncc1S(=O)(=O)N1CC(CC#N)(n2cc(-c3cnn4c(-c5cccc(NC(=O)NCC(F)(F)F)c5)cnc4c3)cn2)C1 [Example 74, N-{3-[7-(1-{3-(Cyanomethyl)-1-[(5-methylisoxazol-4-yl)sulfonyl]azetidin-3-yl}-1H-pyrazol-4-yl)imidazo[1,2-b]pyridazin-3-yl]phenyl}-N′-(2,2,2-trifluoroethyl)urea]	> 8.00
COCC(=O)N1CC(CC#N)(n2cc(-c3cnn4c(-c5cccc(NC(=O)NCC(F)(F)F)c5)cnc4c3)cn2)C1 [Example 75, N-[3-(7-{1-[3-(Cyanomethyl)-1-(methoxyacetyl)azetidin-3-yl]-1H-pyrazol-4-yl}imidazo[1,2-b]pyridazin-3-yl)phenyl]-N′-(2,2,2-trifluoroethyl)urea]	> 8.00
CN(C)CC(=O)N1CC(CC#N)(n2cc(-c3cnn4c(-c5cccc(NC(=O)NCC(F)(F)F)c5)cnc4c3)cn2)C1 [Example 76, N-{3-[7-(1-{3-(Cyanomethyl)-1-[(dimethylamino)acetyl]azetidin-3-yl}-1H-pyrazol-4-yl)imidazo[1,2-b]pyridazin-3-yl]phenyl}-N′-(2,2,2-trifluoroethyl)urea]	> 8.00
N#CCC1(n2cc(-c3cnn4c(-c5cccc(NC(=O)NCC(F)(F)F)c5)cnc4c3)cn2)CN(CC2CC2)C1 [Example 83, N-[3-(7-{1-[3-(Cyanomethyl)-1-(cyclopropylmethyl)azetidin-3-yl]-1H-pyrazol-4-yl}imidazo[1,2-b]pyridazin-3-yl)phenyl]-N′-(2,2,2-trifluoroethyl)urea]	7.60 to 8.00
CC(CC#N)n1cc(-c2cnn3c(-c4cccc(NC(=O)NCC(F)(F)F)c4)cnc3c2)cn1 (stereo not shown) [Example 89, N-(3-{7-[1-(2-Cyano-1-methylethyl)-1H-pyrazol-4-yl]imidazo[1,2-b]pyridazin-3-yl}phenyl)-N′-(2,2,2-trifluoroethyl)urea]	> 8.00
N#CCC(n1cc(-c2cnn3c(-c4cccc(NC(=O)NCC(F)(F)F)c4)cnc3c2)cn1)C(F)(F)F (stereo not shown) [Example 90, N-[3-(7-{1-[1-(Cyanomethyl)-2,2,2-trifluoroethyl]-1H-pyrazol-4-yl}imidazo[1,2-b]pyridazin-3-yl)phenyl]-N′-(2,2,2-trifluoroethyl)urea]	> 8.00
N#CCC(c1ccco1)n1cc(-c2cnn3c(-c4cccc(NC(=O)NCC(F)(F)F)c4)cnc3c2)cn1 (stereo not shown) [Example 91, N-[3-(7-{1-[2-Cyano-1-(2-furyl)ethyl]-1H-pyrazol-4-yl}imidazo[1,2-b]pyridazin-3-yl)phenyl]-N′-(2,2,2-trifluoroethyl)urea]	> 8.00
N#CCC(C1CC1)n1cc(-c2cnn3c(-c4cccc(NC(=O)NCC(F)(F)F)c4)cnc3c2)cn1 (stereo not shown) [Example 92, N-(3-{7-[1-(2-Cyano-1-cyclopropylethyl)-1H-pyrazol-4-yl]imidazo[1,2-b]pyridazin-3-yl}phenyl)-N′-(2,2,2-trifluoroethyl)urea]	> 8.00
N#CCC(c1ccccc1)n1cc(-c2cnn3c(-c4cccc(NC(=O)NCC(F)(F)F)c4)cnc3c2)cn1 (stereo not shown) [Example 93, N-(3-{7-[1-(2-Cyano-1-phenylethyl)-1H-pyrazol-4-yl]imidazo[1,2-b]pyridazin-3-yl}phenyl)-N′-(2,2,2-trifluoroethyl)urea]	> 8.00

More lines, now with the values ahead:

pIC50	SMILES
< 7.60	CNC(=O)Nc1cccc(-c2cnc3cc(-c4cccc(C(=O)NCc5ccccc5F)c4)cnn23)c1 [Example 96, N-(2-Fluorobenzyl)-3-[3-(3-{[(methylamino)carbonyl]amino}phenyl)imidazo[1,2-b]pyridazin-7-yl]benzamide]
< 7.60	CNC(=O)Nc1cccc(-c2cnc3cc(-c4cccc(C(=O)NC(C)c5ccccc5F)c4)cnn23)c1 (stereo not shown) [Example 97, N-[1-(2-Fluorophenyl)ethyl]-3-[3-(3-{[(methylamino)carbonyl]amino}phenyl)imidazo[1,2-b]pyridazin-7-yl]benzamide]
> 8.00	CNC(=O)C(C)c1ccc(-c2cnn3c(-c4cccc(NC(=O)NCC(F)(F)F)c4)cnc3c2)cc1 (stereo not shown) [Example 98, N-Methyl-2-(4-{3-[3-({[(2,2,2-trifluoroethyl)amino]carbonyl}amino)phenyl]imidazo[1,2-b]pyridazin-7-yl}phenyl)propanamide]
> 8.00	CC(C(=O)N(C)C)c1ccc(-c2cnn3c(-c4cccc(NC(=O)NCC(F)(F)F)c4)cnc3c2)cc1 (stereo not shown) [Example 99, N,N-Dimethyl-2-(4-{3-[3-({[(2,2,2-trifluoroethyl)amino]carbonyl}amino)phenyl]imidazo[1,2-b]pyridazin-7-yl}phenyl)propanamide]
> 8.00	CC(C(=O)NC[C@@H]1CCCO1)c1ccc(-c2cnn3c(-c4cccc(NC(=O)NCC(F)(F)F)c4)cnc3c2)cc1 (stereo partly shown) [Example 100]
> 8.00	CC(C(=O)N1CC[C@H](O)C1)c1ccc(-c2cnn3c(-c4cccc(NC(=O)NCC(F)(F)F)c4)cnc3c2)cc1 (stereo partly drawn) [Example 101, N-{3-[7-(4-{2-[(3S)-3-Hydroxypyrrolidin-1-yl]-1-methyl-2-oxoethyl}phenyl)imidazo[1,2-b]pyridazin-3-yl]phenyl}-N′-(2,2,2-trifluoroethyl)urea]
> 8.00	CC(C(=O)N1CCC(O)CC1)c1ccc(-c2cnn3c(-c4cccc(NC(=O)NCC(F)(F)F)c4)cnc3c2)cc1 (stereo not shown) [Example 102, N-[3-(7-{4-[2-(4-Hydroxypiperidin-1-yl)-1-methyl-2-oxoethyl]phenyl}imidazo[1,2-b]pyridazin-3-yl)phenyl]-N′-(2,2,2-trifluoroethyl)urea]
> 8.00	CC(C(=O)N[C@@H]1CCOC1)c1ccc(-c2cnn3c(-c4cccc(NC(=O)NCC(F)(F)F)c4)cnc3c2)cc1 (stereo partly drawn) [Example 103, N-[(3R)-Tetrahydrofuran-3-yl]-2-(4-{3-[3-({[(2,2,2-trifluoroethyl)amino]carbonyl}amino)phenyl]imidazo[1,2-b]pyridazin-7-yl}phenyl)propanamide]
> 8.00	CC(C(=O)N1CC(O)C1)c1ccc(-c2cnn3c(-c4cccc(NC(=O)NCC(F)(F)F)c4)cnc3c2)cc1 (stereo not shown) [Example 104, N-[3-(7-{4-[2-(3-Hydroxyazetidin-1-yl)-1-methyl-2-oxoethyl]phenyl}imidazo[1,2-b]pyridazin-3-yl)phenyl]-N′-(2,2,2-trifluoroethyl)urea]
> 8.00	CC(C(=O)N1CCOCC1)c1ccc(-c2cnn3c(-c4cccc(NC(=O)NCC(F)(F)F)c4)cnc3c2)cc1 (stereo not shown) [Example 105, N-(3-{7-[4-(1-Methyl-2-morpholin-4-yl-2-oxoethyl)phenyl]imidazo[1,2-b]pyridazin-3-yl}phenyl)-N′-(2,2,2-trifluoroethyl)urea]
> 8.00	CC(C(=O)N1CCC[C@H]1CO)c1ccc(-c2cnn3c(-c4cccc(NC(=O)NCC(F)(F)F)c4)cnc3c2)cc1 (stereo partly drawn) [Example 106, N-{3-[7-(4-{2-[(2S)-2-(Hydroxymethyl)pyrrolidin-1-yl]-1-methyl-2-oxoethyl}phenyl)imidazo[1,2-b]pyridazin-3-yl]phenyl}-N′-(2,2,2-trifluoroethyl)urea]

From patent US10213427B2 (Incyte Corporation, priority 2010, dated 2019)
